The source of these data is PubChem BioAssay AID1208 (EPA DSSTox, 2008).

SMILES strings stand for the structures. Calls of active or inactive are those of the source.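 How the source made its calls: active means at least one rat sex group has a carcinogenic potency value and tumor site recorded; inconclusive means only rat studies were judged inadequate by the national testing program; inactive means no potency or tumor site, with negative rat experiments.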 *1 amine or outer side, *2 acyl side, *3 side chain or, on linkers, in order; H or OH if unused. Where a SMILES comes first, the peptide text is derived from it. Bridges are numbered along the chain shown (N, C = ends). Roman numbers before positions name the chains, in order. [ ]: non-standard residue; d: D form. Actinocin(9to1) = Cc1c2oc3c(C)ccc(C(=O)[*:1])c3nc-2c(C(=O)[*:2])c(N)c1=O; NMeV = CN[C@H](C(=O)O)C(C)C; Sar = CNCC(=O)O

The series has as its system rat chronic carcinogenicity bioassay, TD50. The experiment in a line: DSSTox (CPDBAS) Carcinogenic Potency Database Summary Rat Bioassay Results. The note with it: for Potency: stronger effect = lower value. An outline of the steps: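 Chronic long-term rat cancer bioassays from literature and NCI/NTP, taking the most positive result per sex. TD50 in mmol converted to a 1–100 Activity Score from log10(1/TD50). Mixtures lacking TD50 scored 50.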

[1] abbreviates: TD50_Rat_Note: no positive results, TargetSites_Rat_Female: no positive results.
[2] abbreviates: TD50_Rat_Note: no positive results.
Setting [3] is: TD50_Rat_Note: TD50 is harmonic mean of more than one positive test, TargetSites_Rat_Female: liver.

In the case of `Cc1c(N(C)CS(=O)(=O)O)c(=O)n(-c2ccccc2)n1C`, the outcome under setting [1] is “inactive; no positive results”.

As for `c1ccc(N=Nc2ccccc2)cc1`, where the note is “TD50_Rat_Note: TD50 is harmonic mean of more than one positive test, TargetSites_Rat_Female: spleen”, the Potency is 24.1 mg/kg/day.

Regarding `Cc1ccccc1S(N)(=O)=O`, the Potency (TargetSites_Rat_BothSexes: urinary bladder) is 3960 mg/kg/day.

As for `ClC(Cl)=C(c1ccc(Cl)cc1)c1ccc(Cl)cc1`, under setting [1], the outcome is “inactive; no positive results”.

Consider `CNC[C@H](O)c1ccc(O)c(O)c1`, for which, for the setting “TD50_Rat_Note: only experiment is NCI/NTP bioassay inadequate, TargetSites_Rat_Female: NTP bioassay inadequate”, the outcome is recorded as “ntp bioassay inadequate”.

For `CC(C)NCC(O)COc1cccc2ccccc12` (stereo not given), the outcome under setting [1] is “inactive; no positive results”.

For the compound `O=NO`, where the note is “TD50_Rat_Note: TD50 is harmonic mean of more than one positive test, TargetSites_Rat_Female: liver, TargetSites_Rat_BothSexes: hematopoietic system”, the Potency is 167 mg/kg/day.

In the case of `Cc1cc(O)ccc1O`, under setting [2], the outcome is “inactive; no positive results”.

For `O=NN1CC=CCO1`, where the note is “TargetSites_Rat_BothSexes: all tumor bearing animals”, the Potency was 90.6 mg/kg/day.

For the compound `O=C(O)CCCC/C=C(\c1ccccc1)c1cccnc1`, the outcome under setting [1] was “inactive; no positive results”.

With `Cc1cc(-c2ccc(N)c(C)c2)ccc1N`, under “TD50_Rat_Note: TD50 is harmonic mean of more than one positive test, TargetSites_Rat_Female: clitoral gland, ear Zymbals gland, large intestine, liver, lung, mammary gland, oral cavity, skin, small intestine”, the Potency was 0.629 mg/kg/day.

As for `Oc1ccc(Cl)cc1Cc1ccccc1`, the outcome under setting [1] was “inactive; no positive results”.

Turning to `COc1ccc(N)cc1`, under setting [1], the outcome is “inactive; no positive results”.

On to `Oc1ccccc1O`, for which, under “TD50_Rat_Note: TD50 is harmonic mean of more than one positive test, harmonic mean of TD50 includes a value for upper 99% confidence li, TargetSites_Rat_Female: stomach”, the Potency was 71.5 mg/kg/day.

As to `Nc1nc(N)nc(-c2ccccc2)n1`, the outcome under setting [2] was “inactive; no positive results”.

As for `CC[N+]([O-])=NC`, the Potency is 0.0189 mg/kg/day.

Take `COP(=O)(OC)O/C(=C\Cl)c1cc(Cl)c(Cl)cc1Cl`: the outcome (TD50_Rat_Note: no positive results, TargetSites_Rat_Female: no positive results- CPDB evaluation based on NCI Technical Report) is reported as “no positive results”.

`CCSCCC(N)C(=O)O` (stereo not given): the Potency (TD50_Rat_Note: TD50 is harmonic mean of more than one positive test, harmonic mean of TD50 includes a value for upper 99% confidence li) is 9.76 mg/kg/day.

For the compound `Cc1c2oc3c(C)ccc(C(=O)N[C@@H]4C(=O)N[C@H](C(C)C)C(=O)N5CCC[C@H]5C(=O)N(C)CC(=O)N(C)[C@@H](C(C)C)C(=O)O[C@@H]4C)c3nc-2c(C(=O)N[C@@H]2C(=O)N[C@H](C(C)C)C(=O)N3CCC[C@H]3C(=O)N(C)CC(=O)N(C)[C@@H](C(C)C)C(=O)O[C@@H]2C)c(N)c1=O` (I: T[dV]P[Sar][NMeV] / II: T[dV]P[Sar][NMeV]; ester I:1-I:C, II:1-II:C; linker I:N-II:N via Actinocin(9to1)), where the note is “TD50_Rat_Note: positive test results only by intraperitoneal or intravenous injection, TD50 is harmonic mean of more than one positive, TargetSites_Rat_Female: peritoneal cavity”, the Potency was 0.00111 mg/kg/day.

Consider `O=C(O)C(Cl)(Cl)Cl`, for which, under setting [2], the outcome is “inactive; no positive results”.

`NS(=O)(=O)c1cc(C(=O)O)c(NCc2ccco2)cc1Cl`: the outcome under setting [1] was “inactive; no positive results”.

`CC(=O)O[C@@H]1[C@@H](O)C2OC3C=C(C)C(=O)C(O)[C@@]3(CO)[C@]1(C)[C@]21CO1` (stereo not given in full): the outcome under setting [2] was “inactive; no positive results”.

As for `O=S(=O)(O)c1ccc2c(N=Nc3ccc(S(=O)(=O)O)c4ccccc34)c(O)c(S(=O)(=O)O)cc2c1`, the Potency (TD50_Rat_Note: TD50 is harmonic mean of more than one positive test, TargetSites_Rat_BothSexes: hematopoietic system) was 1470 mg/kg/day.

For the compound `F`, the outcome under setting [1] was “inactive; no positive results”.

On to `Clc1cc2c(c(Cl)c1Cl)Oc1c(cc(Cl)c(Cl)c1Cl)O2`, for which the Potency (TargetSites_Rat_Female: liver) is 0.000596 mg/kg/day.

In the case of `O=C1N(CCO)CCN1/N=C/c1ccc([N+](=O)[O-])o1`, for the setting “TargetSites_Rat_Female: mammary gland”, the Potency was 16.7 mg/kg/day.

In the case of `c1ccccc1`, the Potency (TD50_Rat_Note: TD50 is harmonic mean of more than one positive test, TargetSites_Rat_Female: ear Zymbals gland, nasal cavity, oral cavity, stomach, vascular system) was 169 mg/kg/day.

In the case of `CN=C(NC#N)NCCSCc1nc[nH]c1C`, the outcome under setting [1] was “inactive; no positive results”.

On to `ClC1=C(Cl)C2(Cl)C3C(Cl)C=CC3C1(Cl)C2(Cl)Cl` (stereo not given), for which the outcome under setting [1] was “inactive; no positive results”.

As to `CC1(C)[C@@H](O)CC[C@]2(C)[C@H]3C(=O)C=C4[C@@H]5C[C@@](C)(C(=O)O)CC[C@]5(C)CC[C@@]4(C)[C@]3(C)CC[C@@H]12`, under setting [2], the outcome was “inactive; no positive results”.

Regarding `Brc1c(Br)c(Br)c(Oc2c(Br)c(Br)c(Br)c(Br)c2Br)c(Br)c1Br`, under setting [3], the Potency is 3340 mg/kg/day. For the same compound, the outcome under setting [1] is “inactive; no positive results”.

As for `NC(=O)/C(=C\c1ccc([N+](=O)[O-])o1)c1ccco1`, under “TD50_Rat_Note: TD50 is harmonic mean of more than one positive test, greater than ten-fold variation among TD50 values for positive res, TargetSites_Rat_Female: mammary gland”, the Potency is 29.4 mg/kg/day.

For the compound `Cc1ccc(C)c(OCCCC(C)(C)C(=O)O)c1`, under setting [1], the Potency was 247 mg/kg/day.

In the case of `CC(O)CN(CC(C)O)N=O` (stereo not given), the Potency (TD50_Rat_Note: TD50 is harmonic mean of more than one positive test, TargetSites_Rat_Female: esophagus, nasal cavity) was 0.846 mg/kg/day.

`Cc1ccc2c(c1)C(N1CCN(C)CC1)=Nc1ccccc1S2`: the outcome under setting [1] is “inactive; no positive results”.

For the compound `C=CCN(N=O)C(N)=O`, the Potency (TD50_Rat_Note: TD50 is harmonic mean of more than one positive test, TargetSites_Rat_Female: mammary gland, stomach, uterus) was 0.341 mg/kg/day.

Turning to `Oc1c(Cl)cc(Cl)c(Cl)c1Cc1c(O)c(Cl)cc(Cl)c1Cl`, the outcome under setting [1] is “inactive; no positive results”.

Take `O=C(O)c1ccc(N=Nc2ccc(O)c(C(=O)O)c2)cc1`: under setting [1], the outcome is “inactive; no positive results”.

Turning to `CCCCCN(CCCCC)N=O`, the Potency under setting [3] is 4.03 mg/kg/day.

On to `CCCCNC(=O)N(CCCC)N=O`, for which, where the note is “TargetSites_Rat_Female: hematopoietic system, mammary gland”, the Potency was 4.28 mg/kg/day.

With `CCCCCN(N=O)C(=O)OCC`, the Potency (TargetSites_Rat_Female: esophagus, oral cavity) is 1.01 mg/kg/day.

For the compound `Cc1cccc(Nc2cc(Cl)nc(SCC(=O)NCCO)n2)c1C`, the Potency is 6.49 mg/kg/day.

For the compound `Cc1ccc(N=Nc2c(O)ccc3ccccc23)c([N+](=O)[O-])c1`, the Potency under setting [3] is 1170 mg/kg/day.

Regarding `N#Cc1ccc(C2CCCc3cncn32)cc1` (stereo not given), under setting [1], the outcome is “inactive; no positive results”.

Take `ClCc1ccccn1`: the outcome under setting [1] was “inactive; no positive results”.

`CC[C@H]1OC(=O)[C@H](C)[C@@H](O[C@H]2C[C@@](C)(OC)[C@@H](O)[C@H](C)O2)[C@H](C)[C@@H](O[C@@H]2O[C@H](C)C[C@H](N(C)C)[C@H]2O)[C@](C)(O)C[C@@H](C)C(=O)[C@H](C)[C@@H](O)[C@]1(C)O`: the outcome under setting [1] was “inactive; no positive results”.

Turning to `CCN(CC)CCOc1ccc(C(O)(Cc2ccc(OC)cc2)c2ccccc2)cc1` (stereo not given), under setting [1], the outcome was inactive.

Turning to `CNC(=O)O/N=C/C(C)(C)SC`, the outcome under setting [1] is “inactive; no positive results”.

For the compound `NC1=NCN([C@@H]2O[C@H](CO)[C@@H](O)[C@H]2O)C(=O)N1`, under setting [2], the outcome is “inactive; no positive results”.

As to `CN=[N+](C)[O-]`, the Potency (TD50_Rat_Note: TD50 is harmonic mean of more than one positive test) was 0.0466 mg/kg/day.

As to `NC(=O)N(CCO)N=O`, where the note is “TD50_Rat_Note: TD50 is harmonic mean of more than one positive test, greater than ten-fold variation among TD50 values for positive res, TargetSites_Rat_Female: hematopoietic system, mammary gland”, the Potency is 0.244 mg/kg/day.

As to `CC1CCC(C(C)C)C(O)C1` (stereo not given), under setting [1], the outcome is “inactive; no positive results”.

Take `NC(N)=S`: the Potency (TD50_Rat_Note: TD50 is harmonic mean of more than one positive test, TargetSites_Rat_Female: no positive results) was 98.5 mg/kg/day.

For the compound `ClC1=C(Cl)[C@@]2(Cl)[C@@H]3[C@@H](Cl)[C@H](Cl)C[C@@H]3C1(Cl)C2(Cl)Cl`, under setting [1], the outcome was “inactive; no positive results”.

Turning to `CC(C(=O)O)c1cccc(C(=O)c2ccccc2)c1` (stereo not given), the outcome under setting [2] is “inactive; no positive results”.

`O=NN1CCCC1c1cccnc1` (stereo not given): the Potency was 0.0957 mg/kg/day.

Take `CC(=O)CN(CCO)N=O`: the Potency (TargetSites_Rat_Female: liver) was 1.8 mg/kg/day.

With `CN(C)CCN(Cc1cccs1)c1ccccc1`, the outcome under setting [1] was “inactive; no positive results”.

`CCOC(=O)C(O)(c1ccc(Cl)cc1)c1ccc(Cl)cc1`: the outcome under setting [1] was “inactive; no positive results”.

Consider `S=C1NCCN1`, for which, under “TD50_Rat_Note: TD50 is harmonic mean of more than one positive test, greater than ten-fold variation among TD50 values for positive res, TargetSites_Rat_Female: thyroid gland, TargetSites_Rat_BothSexes: liver”, the Potency is 8.13 mg/kg/day.

In the case of `CN(C)c1ccc(C(=N)c2ccc(N(C)C)cc2)cc1`, the Potency is 11 mg/kg/day.

Consider `C=CCc1ccc2c(c1)OCO2`, for which, for the setting “TD50_Rat_Note: TD50 is harmonic mean of more than one positive test, TargetSites_Rat_BothSexes: liver”, the Potency is 441 mg/kg/day.

In the case of `N=C1C=CC(=C(c2ccc(N)cc2)c2ccc(N)cc2)C=C1`, for the setting “TD50_Rat_Note: TD50 is harmonic mean of more than one positive test, TargetSites_Rat_Female: ear Zymbals gland, subcutaneous tissue, thyroid gland”, the Potency was 39.4 mg/kg/day.

Turning to `CCCCOCCO`, the outcome under setting [1] is “inactive; no positive results”.

Regarding `O=[N+]([O-])c1cc(N(CCO)CCO)ccc1NCCO`, the outcome under setting [1] is “inactive; no positive results”.

`O=C1O[C@H]([C@@H](O)CO)C(O)=C1O`: the outcome under setting [1] is “inactive; no positive results”.

`CC[C@H](C)C(=O)O[C@H]1C[C@@H](C)C=C2C=C[C@H](C)[C@H](CC[C@@H]3C[C@@H](O)CC(=O)O3)[C@H]21`: under setting [1], the outcome is “inactive; no positive results”.

For the compound `CC(C)n1c(/C=C/[C@@H](O)C[C@@H](O)CC(=O)O)c(-c2ccc(F)cc2)c2ccccc21`, the Potency (TargetSites_Rat_Female: no positive results) is 125 mg/kg/day.

On to `CCCc1ccc2c(c1)OCO2`, for which, for the setting “TargetSites_Rat_BothSexes: esophagus”, the Potency is 143 mg/kg/day.
